Measurements from patent US20110104159A1, “COMPOSITIONS AND METHODS FOR TREATING, CONTROLLING, REDUCING, AMELIORATING, OR PREVENTING ALLERGY” (priority 2006, published 2011).
Several values for one entry are separate records, joined by “and”; a condition that tells them apart may be missing. Equal values may be shown once.

Key:
EoL-1 cells = assay: EoL-1 cell apoptosis (annexin V/PI flow cytometry); assay type: cell-based, human; details: 10 μM co-incubated
Procedure: EoL-1 cells were grown in RPMI-1640+L-glutamine medium (containing 10% FBS) and kept at 37° C. in a 5% CO2 humidified atmosphere. Before each experiment, the cells were stabilized in serum-depleted media (0.1% FBS) for 24 h before treatments.

[1] = system: peripheral human blood eosinophils; assay: Spontaneous eosinophil apoptosis (annexin V/PI flow cytometry); details: 10 μM co-incubated
Procedure: To assess glucocorticoid-induced apoptosis, cells were double-stained with annexin V-Fluos and propidium iodide (PI). Annexin V-Fluos was used according to the manufacturer's instructions.
The suspension was incubated at room temperature for 10 min and analyzed in the BD FACS Canto II flow cytometry system (Becton, Dickinson and Company, New Jersey, USA). Eosinophils and EoL-1 cells were gated on the basis of their forward and side light scatter, with cell debris excluded from analysis. Apoptotic cells were defined as annexin V^+/PI^− cells. A two-way dot plot was prepared to verify the percentage of apoptotic cells. Annexin V^−/PI^− cells were used as control and annexin V^+/PI^+ cells were considered necrotic.
All data are expressed as mean±S.E.M. for the number of experiments indicated. Statistical comparisons were made by ANOVA and post-hoc Newman-Keuls test with differences of P<0.05 considered significant.

[2] = system: rabbit paracentesis model; assay: Pupillary diameter measurement, rabbit paracentesis model; assay type: in vivo; details: individual eye; for Pupillary diameter T2: −5 min: 5 min before first paracentesis; for Pupillary diameter T3: +115 min: 5 min before second paracentesis; for Pupillary diameter Δ(T3 − T1): +115 min minus −180 min; for Pupillary diameter T1: −180 min: basal
Procedure: (§1) Each rabbit was placed in a restraint device and tagged with the alphanumeric code. The formulations were instilled (50 μl) into the conjunctival sac of both eyes 180, 120, 90 and 30 min before the first paracentesis; then 15, 30, 90 min after the first paracentesis. To perform the first paracentesis the animals were anaesthetized by intravenous injection of 5 mg/kg Zoletil® (Virbac; 2.5 mg/kg tiletamine HCl and 2.5 mg/kg zolazepam HCl) and one drop of local anesthetic (Novesina®, Novartis) was administered to the eye. Anterior chamber paracentesis was performed with a 26 G needle attached to a tuberculin syringe; the needle was introduced into the anterior chamber through the cornea, taking care not to damage the tissues. Two hours after the first paracentesis, the animals were sacrificed with 0.4 ml Tanax® (Intervet International B.V.) and the second paracentesis was performed. About 100 μl of aqueous humor were removed at the second paracentesis. Aqueous humor was immediately split in four aliquots and stored at −80° C. until analysis. Then both eyes were enucleated and the iris-ciliary body was carefully excised, placed in polypropylene tubes, and stored at −80° C. until analysis.
The pupillary diameter of both eyes was measured with a Castroviejo caliper 180 min and 5 min before the first paracentesis and 5 min before the second paracentesis.

[3] = system: rabbit paracentesis model; assay: Clinical evaluation by slit lamp (clinical score), rabbit paracentesis model; assay type: in vivo; parameters: key to Clinical Score −180 min / Clinical Score −5 min / Clinical Score +115 min: 0: normal; 1: discrete dilatation of iris and conjunctival vessels; 2: moderate dilatation of iris and conjunctival vessels; 3: intense iridal hyperemia with flare in the anterior chamber; 4: intense iridal hyperemia with flare in the anterior chamber and presence of fibrinous exudates; details: for Clinical Score −5 min: 5 min before first paracentesis; for Clinical Score −5 min / Clinical Score +115 min / Clinical Score −180 min: individual eye, scale 0-4; for Clinical Score +115 min: 5 min before second paracentesis; for Clinical Score −180 min: basal
PGE2 = assay: Prostaglandin E2 (PGE2) measurement in aqueous humor; assay type: in vivo, Rabbit; details: for PGE2 in aqueous humor at the second paracentesis, Mean: group mean; for PGE2 in aqueous humor at the second paracentesis: individual eye sample; for PGE2 in aqueous humor, statistical comparison with CTR: p<0.05
Procedure: as §1
For the quantitative determination of PGE2 in the aqueous humor we used the PGE2 Immunoassay kit (R&D Systems; Cat. No. KGE004; Lot. No. 240010). Eleven microliters or 16 μl of aqueous humor were diluted to 110 μl or 160 μl with the calibrator diluent solution provided with the kit. One hundred microliters of samples and of standards were load into a 96-well plate and recorded in a plate layout. Samples were treated following the assay procedure described in the kit. A microplate reader (GDV, Italy; model DV 990 B/V6) set at 450 nm (wavelength correction at 540 nm) was used for making the calibration and analyzing the samples.

[4] = system: protein concentration in the aqueous humor; assay: Protein measurement in aqueous humor; assay type: in vivo, Rabbit; details: for Protein in aqueous humor at the second paracentesis, Mean: group mean; for Protein in aqueous humor at the second paracentesis: individual eye sample
Procedure: as §1
For protein concentration determination in the aqueous humor we used the Protein Quantification Kit (Fluka; Cat. No. 77371; Lot. No. 1303129). Five microliters of aqueous humor were diluted to 100 μl with water. Twenty microliters of samples and of standards were load into a 96-well plate and recorded in a plate layout. Samples were treated following the assay procedure described in the kit. A microplate reader (GDV, Italy; model DV 990 B/V6) set at 670 nm was used for making the calibration and analyzing the samples.

leukocytes (PMN) = assay: Leukocytes (PMN) measurement in aqueous humor; assay type: in vivo, Rabbit; details: for PMN in aqueous humor at the second paracentesis, Mean: group mean; for PMN in aqueous humor at the second paracentesis: individual eye sample
Procedure: as §1
For the determination of the number of leukocytes we used a haemocytometer (Improved Neubauer Chamber; Brigth-line, Hausser Scientific) and a Polyvar 2 microscope (Reichert-Jung).

MPO = assay: Myeloperoxidase (MPO) activity in iris-ciliary body; assay type: in vivo, Rabbit; details: for Mean MPO Unit/g (MPO activity in iris-ciliary body samples): group mean, after the second paracentesis; for MPO Unit/g (raw data of MPO activity in iris-ciliary body samples): individual eyes (DX/SX) of rabbits, samples collected after the second paracentesis
Procedure: 2.3.2.1 Phosphate Buffer (50 mM; pH=6)
3.9 g of NaH2PO4 2H2O were dissolved in a volumetric flask to 500 ml with water. The pH was adjusted to pH=6 with 3N NaOH.
0.5 g of hexa-decyl-trimethyl-ammonium bromide was dissolved in 100 ml phosphate buffer.
The solution was prepared freshly. Ten microliters of H2O2 (30 wt. %) were diluted to 1 ml with water (solution A). 7.5 mg o-dianisidine 2HCl were dissolved in 45 ml of phosphate buffer and 75 μl of solution A were added.
as §1
The activity of MPO was measured as previously described by Williams et al. The iris-ciliary bodies were carefully dried, weighed and immersed in 1 ml of hexa-decyl-trimethyl-ammonium bromide solution. Then, the samples were sonicated for 10 sec on ice by a ultrasound homogenizer (HD 2070, Bandelin electronic), freeze-thawed three times, sonicated for 10 sec and centrifuged at 14,000 g for 10 min to remove cellular debris. An aliquot of the supernatant (40-200 μl) was diluted to 3 ml with the o-dianisidine 2HCl/H2O2 solution. The change in absorbance at 460 nm was continuously monitored for 5 min by a spectrophotometer (UV/Vis Spectrometer Lambda EZ 201; Perkin Elmer). The slope of the line (Δ/min) was determined for each sample and used to calculate the number of units of MPO in the tissue as follows:
where ε=11.3 mM^−1. Values were expressed as units of MPO/g of tissue.

## CC#C[C@]1(O)CC[C@H]2[C@@H]3CCC4=CC(=O)CCC4=C3[C@@H](c3ccc(N(C)C)cc3)C[C@@]21C [mifepristone, reference compound]
EoL-1 cells
  Effect on apoptosis induced by 5000 nM BOL-303242-X or dexamethasone in EoL-1 cells: prevented apoptosis
[1]
  Effect on apoptosis induced by 5000 nM BOL-303242-X or dexamethasone in human eosinophils: prevented apoptosis

## C[C@@H]1C[C@H]2[C@@H]3CCC4=CC(=O)C=C[C@]4(C)[C@@]3(F)[C@@H](O)C[C@]2(C)[C@@]1(O)C(=O)CO [Dex, Dexamethasone, reference compound]
[2]; 0.1% topical
  Pupillary diameter T2: −5 min: 5.5 mm and 6.5 mm (3×) and 6.0 mm (2×) and 7.0 mm and 7.5 mm
  Pupillary diameter T3: +115 min: 5.5 mm (3×) and 6.0 mm (2×) and 4.5 mm and 5.0 mm and 6.5 mm
  Pupillary diameter Δ(T3 − T1): −0.5 mm (3×) and −1.5 mm (2×) and 0.5 mm and 0.0 mm and −2.0 mm
  Pupillary diameter T1: −180 min: 6.0 mm and 7.0 mm (2×) and 5.5 mm (2×) and 6.5 mm (3×)
[3]; 0.1% topical
  Clinical Score −5 min: 0 (6×) and 1 (2×)
  Clinical Score +115 min: 1 (6×) and 3 (2×)
  Clinical Score −180 min: 0
[3]; 0.1% topical, +115 min, 8 eyes
  Percentage of eyes with clinical score 1: 75%
  Percentage of eyes with clinical score 3: 25%
[3]; 0.1% topical, −5 min, 8 eyes
  Percentage of eyes with clinical score 0: 75%
  Percentage of eyes with clinical score 1: 25%
[3]; 0.1% topical, −180 min, 8 eyes
  Percentage of eyes with clinical score 0: 100%
PGE2; 0.1% topical
  PGE2 in aqueous humor at the second paracentesis, Mean: 2.263 ng/mL
  PGE2 in aqueous humor at the second paracentesis: 2.51 ng/ml and 2.32 ng/ml (2×) and 2.10 ng/ml and 3.03 ng/ml and 1.30 ng/ml
[4]; 0.1% topical
  Protein in aqueous humor at the second paracentesis, Mean: 33.457 mg/mL
  Protein in aqueous humor at the second paracentesis: 31.31 mg/mL and 31.81 mg/mL and 35.95 mg/mL and 37.15 mg/mL and 32.12 mg/mL and 32.40 mg/mL
Leukocytes (PMN); 0.1% topical
  PMN in aqueous humor at the second paracentesis, Mean: 30.000 number/μl
  PMN in aqueous humor at the second paracentesis: 20 number/μl (3×) and 50 number/μl and 40 number/μl and 30 number/μl
MPO; 0.1% treatment
  Mean MPO Unit/g (MPO activity in iris-ciliary body samples): 0.618 Unit/g
  MPO Unit/g (raw data of MPO activity in iris-ciliary body samples): 0.71 Unit/g and 0.60 Unit/g and 1.32 Unit/g and 0.48 Unit/g (2×) and 0.39 Unit/g and 0.45 Unit/g and 0.51 Unit/g

## CCOC(=O)O[C@]1(C(=O)OCCl)CC[C@H]2[C@@H]3CCC4=CC(=O)C=C[C@]4(C)[C@H]3[C@@H](O)C[C@@]21C [LE, loteprednol etabonate, reference compound]
[2]; 0.5% topical
  Pupillary diameter T2: −5 min: 6.0 mm (3×) and 6.5 mm (5×)
  Pupillary diameter T3: +115 min: 4.5 mm and 5.0 mm (2×) and 5.5 mm (2×) and 6.0 mm (3×)
  Pupillary diameter Δ(T3 − T1): −1.5 mm (2×) and −1.0 mm (3×) and 0.0 mm and −0.5 mm (2×)
  Pupillary diameter T1: −180 min: 6.0 mm (3×) and 6.5 mm (5×)
[3]; 0.5% topical
  Clinical Score −5 min: 0
  Clinical Score +115 min: 2 (2×) and 1 (6×)
  Clinical Score −180 min: 0
[3]; 0.5% topical, +115 min, 8 eyes
  Percentage of eyes with clinical score 1: 75%
  Percentage of eyes with clinical score 2: 25%
[3]; 0.5% topical, p<0.05
  Clinical score, statistical comparison with CTR: significant difference
[3]; 0.5% topical, −5 min, 8 eyes
  Percentage of eyes with clinical score 0: 100%
[3]; 0.5% topical, −180 min, 8 eyes
  Percentage of eyes with clinical score 0: 100%
PGE2; 0.5% topical
  PGE2 in aqueous humor at the second paracentesis, Mean: 0.672 ng/mL
  PGE2 in aqueous humor at the second paracentesis: ^2N/D and 0.23 ng/ml and 0.68 ng/ml and 1.10 ng/ml
  PGE2 in aqueous humor, statistical comparison with CTR: statistically significant versus CTR
[4]; 0.5% topical
  Protein in aqueous humor at the second paracentesis, Mean: 33.905 mg/mL
  Protein in aqueous humor at the second paracentesis: 36.14 mg/mL and 39.10 mg/mL and 34.69 mg/mL and 26.10 mg/mL and 26.30 mg/mL and 28.16 mg/mL and 40.90 mg/mL and 39.85 mg/mL
Leukocytes (PMN); 0.5% topical
  PMN in aqueous humor at the second paracentesis, Mean: 28.333 number/μl
  PMN in aqueous humor at the second paracentesis: 40 number/μl (2×) and 20 number/μl (3×) and 30 number/μl
MPO; 0.5% topical, p<0.001
  MPO activity in iris-ciliary body, statistical comparison with CTR: statistical significance
MPO; 0.5% treatment
  Mean MPO Unit/g (MPO activity in iris-ciliary body samples): 0.661 Unit/g
  MPO Unit/g (raw data of MPO activity in iris-ciliary body samples): 0.30 Unit/g and 0.51 Unit/g and 0.81 Unit/g and 0.60 Unit/g and 0.73 Unit/g and 1.01 Unit/g

## CC(C(=O)O)c1ccc(-c2ccccc2)c(F)c1 (centres unmarked) [F, flurbiprofen, reference compound]
[2]; 0.03% topical
  Pupillary diameter T2: −5 min: 6.0 mm (3×) and 6.5 mm (3×) and 7.0 mm and 5.5 mm
  Pupillary diameter T3: +115 min: 4.0 mm and 3.5 mm and 5.5 mm (2×) and 5.0 mm (2×) and 4.5 mm and 6.0 mm
  Pupillary diameter Δ(T3 − T1): −1.0 mm (3×) and −1.5 mm (3×) and 0.0 mm (2×)
  Pupillary diameter T1: −180 min: 5.0 mm (2×) and 7.0 mm and 6.0 mm (4×) and 5.5 mm
[3]; 0.03% topical
  Clinical Score −5 min: 0
  Clinical Score +115 min: 2
  Clinical Score −180 min: 0
[3]; 0.03% topical, +115 min, 8 eyes
  Percentage of eyes with clinical score 2: 100%
[3]; 0.03% topical, −5 min, 8 eyes
  Percentage of eyes with clinical score 0: 100%
[3]; 0.03% topical, −180 min, 8 eyes
  Percentage of eyes with clinical score 0: 100%
PGE2; 0.03% topical
  PGE2 in aqueous humor at the second paracentesis, Mean: 1.189 ng/mL
  PGE2 in aqueous humor at the second paracentesis: 1.04 ng/ml and 0.75 ng/ml and 0.85 ng/ml and 1.11 ng/ml and 2.11 ng/ml (2×) and 0.93 ng/ml and 0.61 ng/ml
  PGE2 in aqueous humor, statistical comparison with CTR: statistically significant versus CTR
[4]; 0.03% topical
  Protein in aqueous humor at the second paracentesis, Mean: 20.910 mg/mL
  Protein in aqueous humor at the second paracentesis: 20.78 mg/mL and 28.80 mg/mL and 23.41 mg/mL and 20.21 mg/mL and 17.53 mg/mL and 15.12 mg/mL and 20.52 mg/mL
[4]; 0.03% topical, p<0.001
  Protein in aqueous humor, statistical comparison with CTR: statistical significance
Leukocytes (PMN); 0.03% topical
  PMN in aqueous humor at the second paracentesis, Mean: 30.000 number/μl
  PMN in aqueous humor at the second paracentesis: 50 number/μl and 40 number/μl (2×) and 20 number/μl (2×) and 10 number/μl and 30 number/μl
MPO; 0.03% topical, p<0.01
  MPO activity in iris-ciliary body, statistical comparison with CTR: statistical significance
MPO; 0.03% treatment
  Mean MPO Unit/g (MPO activity in iris-ciliary body samples): 0.906 Unit/g
  MPO Unit/g (raw data of MPO activity in iris-ciliary body samples): 1.10 Unit/g and 1.70 Unit/g and 0.34 Unit/g and 0.75 Unit/g and 0.74 Unit/g and 0.63 Unit/g and 0.73 Unit/g and 1.27 Unit/g
